What is called inhibition is the drop in the measured response relative to a control, in per cent.

Molecules are shown by their SMILES.

A short description of series [1]: sensitivity to light (UV and sunlight). In kind it is physicochemical.
Series [2] relates to 4th instar larvae of Spilarctia Obliqua. As to the kind of experiment: feeding deterrency (antifeedant) bioassay, diet-mix method, fecal pellet count. Format: in vivo. Conditions: for % feeding deterrency: artificial diet, after 24 hours; for antifeedant activity: result in words, bioassay studies. The protocol: (§1) The compound having formula (1) was evaluated as feeding deterrent and growth inhibitor against 4th in star larvae of spilarctia obliqua (Bihar hairy caterpillar). This insect attacks more than twenty cash crops like urd, moong, arhar, mint and coleus etc. Several synthetic insecticides like quinalphos, Phosphamidon and synthetic pyrethroids are commercially used to manage this insect pest. But, the insect is developing resistance towards some of these insecticides. Therefore, it has now become imperative to search for new ecologically safe, environmentally sound and non-toxic chemicals to manage this pest.
(§2) With compound having formula (1) insect feeding deterrency and growth inhibition was tested by diet-mix method. In this method, 4-(p-methoxyphenyl)-2-aminobutane,the compound having formula (1) was dissolved in acetone to make various concentrations ranging from 1000 to 5000 ppm. Test solution was mixed in the artificial diet of the insect so that each gram of diet contained 60-300 µg of the compound (1). 4th in star larva (newly molted) starved four hours, was weighed and released on treated artificial diet in thirty replications. In control, only solvent acetone was mixed and azadirachtin at 1000 ppm concentration was taken as standard for feeding bioassay. After 24 hours, number of fecal pellets produced were counted, and the data were analyzed for % feeding deterrency. Some experiments were continued for next 24 hours and weights of the larva were taken daily. After 3 days, experiment was discontinued and weight gain or loss was analyzed for % growth inhibition.

The test system is the same in series [3]. As to the kind of experiment: growth inhibition assay, diet-mix method, larval weight gain or loss. In kind it is in vivo. Conditions: for growth inhibition: result in words, bioassay studies. The method, then: as §1, §2
Diflubenzuron at 5 ppm was taken as a standard in case of growth inhibitory assay. The test result of compound having formula (1) in terms of its feeding deterrency and growth inhibition as compared to standards azadirachtin and diflubenzuron are given in table 1.

[4] abbreviates: Spilarctia obliqua, 72 h, read-out: % growth inhibition.

Regarding `C/C=C(\C)C(=O)O[C@H]1C[C@@H](OC(C)=O)[C@@]2(C(=O)OC)CO[C@H]3[C@@H](O)[C@@](C)([C@]45O[C@@]4(C)[C@H]4C[C@@H]5O[C@@H]5OC=C[C@@]54O)[C@H]4[C@]1(CO[C@]4(O)C(=O)OC)[C@@H]32` [Azadirachtin, reference compound], the sensitivity to light result in series [1] is reported as “photosensitive”. Further, in series [2] (1000 ppm), the “% feeding deterrency” value was 100.0%.

On to `COc1ccc(CCC(C)N)cc1` (stereo not drawn) [Compound 1, 4-(p-methoxyphenyl)-2-amino-butane], for which, in series [1], the sensitivity to light result was “not sensitive to light”. In series [3] (setting [4]), the inhibition at 1000 ppm was 48%, the inhibition at 2000 ppm was found to be 59%, the inhibition at 3000 ppm is 72% and the inhibition at 4000 ppm was determined as 100%. In addition, the inhibition at 5000 ppm in series [3] (setting [4]) stood at 128%. The growth inhibition result in series [3] was “significant activity”. The “% feeding deterrency” value in series [2] (1000 ppm) is reported as 32.0%. Besides, the “% feeding deterrency” value in series [2] (2000 ppm) is given as 40.0%. Moreover, in series [2] (3000 ppm), the “% feeding deterrency” value is reported as 64.0%. For the same molecule, the “% feeding deterrency” value in series [2] (4000 ppm) is 82.0%. Moreover, in series [2] (5000 ppm), the “% feeding deterrency” value came out at 100.0%. Also, the antifeedant activity entry in series [2] is “significant activity”.

Take `O=C(NC(=O)c1c(F)cccc1F)Nc1ccc(Cl)cc1` [Diflubenzuron, reference compound]: the inhibition at 5 ppm in series [3] (Spilarctia obliqua, 72 h, 5 ppm, artificial diet, after 3 days) was 100%.

Consider `CC(O)CCc1ccc(O)cc1` (stereo not drawn) [compound (2), 4-(p-hydroxyphenyl)-butan-2-ol], for which the growth inhibition result in series [3] is reported as “not found to be active”. Further, the antifeedant activity result in series [2] was “not found to be active”.

(Values after patent publication EP1138666B1, “A preparation method for 4-(P-methoxyphenyl)-2-amino-butane and an insecticidal composition comprising it” (Council of Scientific and Industrial Research, priority 2000, dated 2001).)
